Experimental data: patent US8771665B2 (Cocrystal Discovery, Inc., priority 2010, dated 2014)

These compounds were tested against T1, HCV1b NS5B polymerase delta 21 (Hepatitis C virus genotype 1b, UniProt P26663) (assay: RNA-Dependent RNA HCV NS5B (Polymerase) Assay and IC50 Determination).
T1 construct: purified HCV1b NS5B polymerase delta 21
Type: biochemical
Procedure, shortened: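 Purified NS5B Δ21 (0.6 μg) with polyA:U16 template, 10 μM UTP plus α-32P UTP in Tris-HCl pH 7.5, 5 mM MgCl2, 0.5% Triton X-100, 60 min at 23°C with varied compound concentrations. Radiolabelled RNA captured on filters, quantified by phosphorimaging; IC50 from triplicate assays.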

T1 sequence (P26663 2420-2989): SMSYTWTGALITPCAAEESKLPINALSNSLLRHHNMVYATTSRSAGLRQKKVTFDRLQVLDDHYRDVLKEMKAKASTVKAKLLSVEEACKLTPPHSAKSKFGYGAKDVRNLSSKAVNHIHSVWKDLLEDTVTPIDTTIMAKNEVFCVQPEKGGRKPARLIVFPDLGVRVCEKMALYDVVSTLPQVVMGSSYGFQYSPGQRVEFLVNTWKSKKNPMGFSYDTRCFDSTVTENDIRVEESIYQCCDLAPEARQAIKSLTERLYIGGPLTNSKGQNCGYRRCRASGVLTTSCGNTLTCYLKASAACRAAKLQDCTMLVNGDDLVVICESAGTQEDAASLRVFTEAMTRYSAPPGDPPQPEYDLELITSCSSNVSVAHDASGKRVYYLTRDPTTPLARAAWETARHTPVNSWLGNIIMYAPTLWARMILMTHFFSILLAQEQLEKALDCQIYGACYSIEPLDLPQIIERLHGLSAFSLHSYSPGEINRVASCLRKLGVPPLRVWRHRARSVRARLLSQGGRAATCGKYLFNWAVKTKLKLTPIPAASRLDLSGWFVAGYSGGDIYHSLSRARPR

| Structure (SMILES) | IC50 [µM] |
| --- | --- |
| CCN1CCC(c2cc(-c3cccc(NC(C)=O)c3)sc2C(=O)O)=C(C2CCC(C)CC2)C1 (stereo not shown) [Example 024, 5-(3-Acetylamino-phenyl)-3-[1-ethyl-5-(4-methyl-cyclohexyl)-1,2,3,6-tetrahydro-pyridin-4-yl]-thiophene-2-carboxylic acid] | > 10 |
| CC1CCC(C2=C(c3cc(C#CC(C)(C)C)sc3C(=O)O)CN(C)CC2)CC1 (stereo not shown) [Example 112, 5-(3,3-Dimethyl-but-1-ynyl)-3-[1-methyl-4-(4-methyl-cyclohexyl)-1,2,5,6-tetrahydro-pyridin-3-yl]-thiophene-2-carboxylic acid] | < 3 |
| CCN1CCC(c2cc(-c3ccc(NC(=O)c4cccs4)cc3)sc2C(=O)O)=C(C2CCC(C)CC2)C1 (stereo not shown) [Example 028, 3-[1-Ethyl-5-(4-methyl-cyclohexyl)-1,2,3,6-tetrahydro-pyridin-4-yl]-5-{4-[(thiophene-2-carbonyl)-amino]-phenyl}-thiophene-2-carboxylic acid] | < 3 |
| CC1CCC(C2=C(c3cc(C#CC(C)(C)C)sc3C(=O)O)CN(CCO)CC2)CC1 (stereo not shown) [Example 113, 5-(3,3-Dimethyl-but-1-ynyl)-3-[1-(2-hydroxy-ethyl)-4-(4-methyl-cyclohexyl)-1,2,5,6-tetrahydro-pyridin-3-yl]-thiophene-2-carboxylic acid] | < 3 |
| CC(=O)N1CCC(c2cc(-c3ccccc3)sc2C(=O)O)=C(C2CCC(C)CC2)C1 (stereo not shown) [Example 071, 3-[1-Acetyl-5-(4-methyl-cyclohexyl)-1,2,3,6-tetrahydro-pyridin-4-yl]-5-phenyl-thiophene-2-carboxylic acid] | < 3 |
| CC1CCC(C2=C(c3cc(-c4ccccc4)sc3C(=O)O)CCN(C(=O)c3cncn3C)C2)CC1 (stereo not shown) [Example 156, 3-[5-(4-Methyl-cyclohexyl)-1-(3-methyl-3H-imidazole-4-carbonyl)-1,2,3,6-tetrahydro-pyridin-4-yl]-5-phenyl-thiophene-2-carboxylic acid] | > 10 |
| CC1CCC(C2=C(c3cc(-c4ccccc4)sc3C(=O)O)CCN(Cc3ccnc(-c4ccc(F)cc4)c3)C2)CC1 (stereo not shown) [Example 147, 3-[1-[2-(4-Fluoro-phenyl)-pyridin-4-ylmethyl]-5-(4-methyl-cyclohexyl)-1,2,3,6-tetrahydro-pyridin-4-yl]-5-phenyl-thiophene-2-carboxylic acid] | > 10 |
| CC1CCC(C2=C(c3cc(-c4ccc(NC(=O)c5cscn5)cc4)sc3C(=O)OCCN(C)C)CCN(C)C2)CC1 (stereo not shown) [Example 103, 3-[1-Methyl-5-(4-methyl-cyclohexyl)-1,2,3,6-tetrahydro-pyridin-4-yl]-5-{4-[(thiazole-4-carbonyl)-amino]-phenyl}-thiophene-2-carboxylic acid 2-dimethylamino-ethyl ester] | < 3 |
| CC1CCC(C2=C(c3cc(C#CC(C)(C)C)sc3C(=O)O)CN(CCF)CC2)CC1 (stereo not shown) [Example 124, 5-(3,3-Dimethyl-but-1-ynyl)-3-[1-(2-fluoro-ethyl)-4-(4-methyl-cyclohexyl)-1,2,5,6-tetrahydro-pyridin-3-yl]-thiophene-2-carboxylic acid] | < 3 |
| CC1CCC(C2=C(c3cc(C#CC(C)(C)C)sc3C(=O)O)CCN(CCO)C2)CC1 (stereo not shown) [Example 168, 5-(3,3-Dimethyl-but-1-ynyl)-3-[1-(2-hydroxy-ethyl)-5-(4-methyl-cyclohexyl)-1,2,3,6-tetrahydro-pyridin-4-yl]-thiophene-2-carboxylic acid] | < 3 |
| CCOC(=O)OC(C)OC(=O)c1sc(-c2ccc(NC(=O)c3cscn3)cc2)cc1C1=C(C2CCC(C)CC2)CN(C)CC1 (stereo not shown) [Example 104, 3-[1-Methyl-5-(4-methyl-cyclohexyl)-1,2,3,6-tetrahydro-pyridin-4-yl]-5-{4-[(thiazole-4-carbonyl)-amino]-phenyl}-thiophene-2-carboxylic acid 1-ethoxycarbonyloxy-ethyl ester] | > 10 |
| CC1CCC(C2=C(c3cc(-c4ccccc4)sc3C(=O)O)CCN(C(=O)Cn3cnc4ccccc43)C2)CC1 (stereo not shown) [Example 152, 3-[1-(2-Benzoimidazol-1-yl-acetyl)-5-(4-methyl-cyclohexyl)-1,2,3,6-tetrahydro-pyridin-4-yl]-5-phenyl-thiophene-2-carboxylic acid] | < 3 |
| CCN1CCC(c2cc(C#CC(C)(C)NC(=O)c3cscn3)sc2C(=O)O)=C(C2CCC(C)CC2)C1 (stereo not shown) [Example 022, 3-[1-Ethyl-5-(4-methyl-cyclohexyl)-1,2,3,6-tetrahydro-pyridin-4-yl]-5-{3-methyl-3-[(thiazole-4-carbonyl)-amino]-but-1-ynyl}-thiophene-2-carboxylic acid] | > 10 |
| CCCCN1CCC(c2cc(-c3ccccc3)sc2C(=O)O)=C(C2CCC(C)CC2)C1 (stereo not shown) [Example 007, 3-[1-Butyl-5-(4-methyl-cyclohexyl)-1,2,3,6-tetrahydro-pyridin-4-yl]-5-phenyl-thiophene-2-carboxylic acid] | < 3 |
| CC1CCC(C2=C(c3cc(-c4ccccc4)sc3C(=O)O)CCN(Cc3nc4ncccn4n3)C2)CC1 (stereo not shown) [Example 092, 3-[5-(4-Methyl-cyclohexyl)-1-[1,2,4]triazolo[1,5-a]pyrimidin-2-ylmethyl-1,2,3,6-tetrahydro-pyridin-4-yl]-5-phenyl-thiophene-2-carboxylic acid] | 3 to 10 |
| CCN1CCC(c2cc(-c3ccccc3)sc2C(=O)O)=C(C2CCC(C)CC2)C1 (stereo not shown) [Example 044, 3-[1-Ethyl-5-(4-methyl-cyclohexyl)-1,2,3,6-tetrahydro-pyridin-4-yl]-5-phenyl-thiophene-2-carboxylic acid] | < 3 |
| CC1CC=C(C2=C(c3cc(-c4ccc(NC(=O)c5nccs5)cc4)sc3C(=O)O)CCN(C)C2)CC1 (stereo not shown) [Example 069, 3-[1-Methyl-5-(4-methyl-cyclohex-1-enyl)-1,2,3,6-tetrahydro-pyridin-4-yl]-5-{4-[(thiazole-2-carbonyl)-amino]-phenyl}-thiophene-2-carboxylic acid] | < 3 |
| CC1CCC(C2=C(c3cc(-c4ccccc4)sc3C(=O)O)CCN(C(C)C)C2)CC1 (stereo not shown) [Example 009, 3-[1-Isopropyl-5-(4-methyl-cyclohexyl)-1,2,3,6-tetrahydro-pyridin-4-yl]-5-phenyl-thiophene-2-carboxylic acid] | 3 to 10 |
| CCN1CCC(c2cc(C#CC(C)(C)N)sc2C(=O)O)=C(C2CCC(C)CC2)C1 (stereo not shown) [Example 021, 5-(3-Amino-3-methyl-but-1-ynyl)-3-[1-ethyl-5-(4-methyl-cyclohexyl)-1,2,3,6-tetrahydro-pyridin-4-yl]-thiophene-2-carboxylic acid] | < 3 |
| CC1CCC(C2=C(c3cc(C#CC4CC4)sc3C(=O)O)CN(C)CC2)CC1 (stereo not shown) [Example 175, 5-Cyclopropylethynyl-3-[1-methyl-4-(4-methyl-cyclohexyl)-1,2,5,6-tetrahydro-pyridin-3-yl]-thiophene-2-carboxylic acid] | < 3 |
| CCN1CCC(c2cc(-c3ccc(NC(=O)c4ccco4)cc3)sc2C(=O)O)=C(C2CCC(C)CC2)C1 (stereo not shown) [Example 054, 3-[1-Ethyl-5-(4-methyl-cyclohexyl)-1,2,3,6-tetrahydro-pyridin-4-yl]-5-{4-[(furan-2-carbonyl)-amino]-phenyl}-thiophene-2-carboxylic acid] | < 3 |
| CC1CCC(C2=C(c3cc(-c4ccc(C5=CC6N=CC=CC6O5)cc4)sc3C(=O)O)CCN(C)C2)CC1 (stereo not shown) [Example 135, 5-[4-(3a,7a-Dihydro-furo[3,2-b]pyridin-2-yl)-phenyl]-3-[1-methyl-5-(4-methyl-cyclohexyl)-1,2,3,6-tetrahydro-pyridin-4-yl]-thiophene-2-carboxylic acid] | < 3 |
